Data on 8 compounds can be found in PMC10233710 (ChemMedChem, 2023).

Each structure is given as a SMILES string. Where two headings read alike, the source gives them in different places.

The target in assay [1] is recombinant human TDP1 (Homo sapiens, UniProt Q9NUW8). Nature of the assay: TDP1 gel-based inhibition assay. In kind it is biochemical.
For assay [2], the target named is T1, recombinant TOP1 (Homo sapiens, UniProt P11387).
T1 sequence (P11387 1-765): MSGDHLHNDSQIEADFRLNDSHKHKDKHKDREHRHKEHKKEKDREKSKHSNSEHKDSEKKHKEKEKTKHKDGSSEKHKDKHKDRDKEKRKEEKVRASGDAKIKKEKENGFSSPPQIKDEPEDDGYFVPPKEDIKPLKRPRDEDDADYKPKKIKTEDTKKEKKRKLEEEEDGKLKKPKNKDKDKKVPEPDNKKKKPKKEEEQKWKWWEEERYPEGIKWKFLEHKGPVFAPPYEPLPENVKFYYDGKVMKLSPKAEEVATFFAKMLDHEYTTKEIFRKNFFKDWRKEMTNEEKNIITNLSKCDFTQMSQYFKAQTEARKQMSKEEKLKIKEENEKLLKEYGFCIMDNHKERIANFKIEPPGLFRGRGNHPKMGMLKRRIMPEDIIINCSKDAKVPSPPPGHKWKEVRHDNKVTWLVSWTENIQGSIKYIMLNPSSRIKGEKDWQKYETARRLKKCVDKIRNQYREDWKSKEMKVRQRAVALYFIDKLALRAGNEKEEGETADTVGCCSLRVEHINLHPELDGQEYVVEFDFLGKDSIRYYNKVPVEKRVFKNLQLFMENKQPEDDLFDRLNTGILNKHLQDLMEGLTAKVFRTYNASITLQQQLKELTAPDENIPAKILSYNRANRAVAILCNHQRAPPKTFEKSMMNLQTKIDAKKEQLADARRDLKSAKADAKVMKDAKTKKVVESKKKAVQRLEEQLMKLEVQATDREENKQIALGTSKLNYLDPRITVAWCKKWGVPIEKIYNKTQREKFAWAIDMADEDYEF
Nature of the assay: TOP1-mediated DNA cleavage assay. Format: biochemical. Conditions: TOP1 cleavage inhibitory activity, semiquantitative relative to CPT at 1 μM; Table 2.

Assay [3] deals with HCT-116 cells. Nature of the assay: MTT cytotoxicity assay, HCT-116. In kind it is cell-based, human. Conditions: Homo sapiens, HCT-116, 72 h, read-out: GI50 ± SD (μM) HCT-116.
The test system of assay [4] is MCF-7 cells. Nature of the assay: MTT cytotoxicity assay, MCF-7. In kind it is cell-based, human. Conditions: Homo sapiens, MCF7, 72 h, read-out: GI50 ± SD (μM) MCF-7.

Sequence of recombinant human TDP1 (Q9NUW8 whole entry): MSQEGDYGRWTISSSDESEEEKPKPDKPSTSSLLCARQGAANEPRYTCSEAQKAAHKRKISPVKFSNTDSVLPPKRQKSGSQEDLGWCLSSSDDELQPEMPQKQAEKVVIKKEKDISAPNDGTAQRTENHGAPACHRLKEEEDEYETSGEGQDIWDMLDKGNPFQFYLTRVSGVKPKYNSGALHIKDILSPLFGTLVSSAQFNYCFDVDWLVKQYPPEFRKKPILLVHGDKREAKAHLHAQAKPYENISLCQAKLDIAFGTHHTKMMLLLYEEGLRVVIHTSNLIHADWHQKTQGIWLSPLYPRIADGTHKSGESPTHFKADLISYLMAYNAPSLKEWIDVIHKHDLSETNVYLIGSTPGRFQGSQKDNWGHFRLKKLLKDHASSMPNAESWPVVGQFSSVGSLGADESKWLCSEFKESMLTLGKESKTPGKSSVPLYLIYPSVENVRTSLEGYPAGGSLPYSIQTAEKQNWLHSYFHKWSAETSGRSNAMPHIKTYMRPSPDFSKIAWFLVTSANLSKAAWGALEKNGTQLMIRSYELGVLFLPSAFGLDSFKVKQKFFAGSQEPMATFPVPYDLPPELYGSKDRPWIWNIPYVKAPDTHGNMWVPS

In the case of `COc1cc2c(=O)n(C)c3c4cc5c(cc4cc(OCCN(C)C)c3c2cc1OC)OCO5` [Compound 34, 5-(2-(Dimethylamino)ethoxy)-2,3-dimethoxy-12-methyl-[1,3]dioxolo[4’,5’:4,5]benzo[1,2-c]phenanthridin-13(12H)-one], in assay [1], the concentration for half-maximal inhibition (IC50) lay in the range of 37 to 111 µM. The “TOP1 Inhibition” value in assay [2] is “+ (+, between 20% and 50% activity)”. Besides, the GI50 came to 11 ± 0.48 µM in assay [3] and 27 ± 1.5 µM in assay [4].
On to `CCN(CC)CCOc1cc2cc3c(cc2c2c1c1cc(OC)c(OC)cc1c(=O)n2C)OCO3` [Compound 36, 5-(2-(Diethylamino)ethoxy)-2,3-dimethoxy-12-methyl-[1,3]dioxolo[4’,5’:4,5]benzo[1,2-c]phenanthridin-13(12H)-one], for which, in assay [1] (read-out: IC50 (μM) for TDP1, gel-based assay, Table 2), the IC50 is > 111 µM. Besides, the “TOP1 Inhibition” value in assay [2] came to 0. For the same compound, the 50% growth inhibitory concentration (GI50) in assay [3] was found to be 2.1 ± 0.23 µM; in assay [4], 1.6 ± 0.17 µM.
For the compound `CCN(CC)CCCOc1cc2cc3c(cc2c2c1c1cc(OC)c(OC)cc1c(=O)n2C)OCO3` [Compound 37, 5-(3-(Diethylamino)propoxy)-2,3-dimethoxy-12-methyl-[1,3]dioxolo[4’,5’:4,5]benzo[1,2-c]phenanthridin-13(12H)-one], the IC50 in assay [1] worked out at 15 ± 2.4 µM. In addition, the “TOP1 Inhibition” value in assay [2] is “+ (+, between 20% and 50% activity)”. Further, the GI50 in assay [3] is 2.4 ± 0.11 µM; in assay [4], 2 ± 0.1 µM.
Turning to `COc1cc2c(=O)n(C)c3c4cc5c(cc4cc(OCCCN4CCCC4)c3c2cc1OC)OCO5` [Compound 39, 2,3-Dimethoxy-12-methyl-5-(3-(pyrrolidin-1-yl)propoxy)-[1,3]dioxolo[4’,5’:4,5]benzo[1,2-c]phenanthridin-13(12H)-one], the half-inhibitory concentration (IC50) in assay [1] was 15 ± 2.8 µM. The “TOP1 Inhibition” value in assay [2] was “+ (+, between 20% and 50% activity)”. Besides, the results for the GI50 in assay [3] and in assay [4] were 1.3 ± 0.21 µM and 1.4 ± 0.13 µM, respectively.
As to `COc1cc2c(=O)n(C)c3c4cc5c(cc4cc(OCCN4CCOCC4)c3c2cc1OC)OCO5` [Compound 40, 2,3-Dimethoxy-12-methyl-5-(2-morpholinoethoxy)-[1,3]dioxolo[4’,5’:4,5]benzo[1,2-c]phenanthridin-13(12H)-one], the IC50 in assay [1] is > 111 µM. The “TOP1 Inhibition” value in assay [2] is “++ (++, between 50% and 75% activity)”. Also, the results for the GI50 in assay [3] and in assay [4] were 15 ± 1.08 µM and 18 ± 0.67 µM, respectively.
For the compound `COc1cc2c(=O)n(C)c3c4cc5c(cc4cc(OCCCN4CCOCC4)c3c2cc1OC)OCO5` [Compound 41, 2,3-Dimethoxy-12-methyl-5-(3-morpholinopropoxy)-[1,3]dioxolo[4’,5’:4,5]benzo[1,2-c]phenanthridin-13(12H)-one], the concentration for half-maximal inhibition (IC50) in assay [1] was > 111 µM. In addition, the “TOP1 Inhibition” value in assay [2] was “+ (+, between 20% and 50% activity)”. Moreover, the results for the GI50 in assay [3] and in assay [4] were 3.3 ± 0.73 µM and 7.9 ± 1 µM, respectively.
As to `COc1cc2c(=O)n(C)c3c4cc5c(cc4cc(OCCCO)c3c2cc1OC)OCO5` [Compound 42, 5-(3-Hydroxypropoxy)-2,3-dimethoxy-12-methyl-[1,3]dioxolo[4’,5’:4,5]benzo[1,2-c]phenanthridin-13(12H)-one], in assay [1], the IC50 is > 111 µM. In addition, in assay [2], the “TOP1 Inhibition” value was “+ (+, between 20% and 50% activity)”. For the same compound, the GI50 in assay [3] worked out at 38 ± 2.31 µM; in assay [4] it was 51 ± 1.6 µM.
As for `COc1cc2c(=O)n(C)c3c4cc5c(cc4cc(OCCCn4ccnc4)c3c2cc1OC)OCO5` [Compound 44, 5-(3-(1H-imidazol-1-yl)propoxy)-2,3-dimethoxy-12-methyl-[1,3]dioxolo[4’,5’:4,5]benzo[1,2-c]phenanthridin-13(12H)-one], the IC50 in assay [1] was > 111 µM. In addition, in assay [2], the “TOP1 Inhibition” value is reported as 0/+ (0/+, less than 20%). In addition, the 50% growth inhibitory concentration (GI50) stood at 10 ± 1.2 µM in assay [3] and 7 ± 0.55 µM in assay [4].
